Test results reported in US10501460B2, “Heterocyclic compounds and uses thereof” (Plexxikon Inc., priority 2013, dated 2019).

Tests used:
MV-4-11 = experiment: Oncology cell growth assay MV-4-11 (CellTiter Glo, 72 hours); type: cell-based; conditions: Homo sapiens, MV4-11, 72 h; MV-4-11 cell growth inhibitory activity, 3d
Outline: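 MV-4-11 cells (MLL-AF4 AML) exposed 72 h to 8-point 1:3 titration, top final 10 μM, 0.2% DMSO. CellTiter Glo luminescence as cell-number readout, normalized to DMSO controls; pIC50 from four-parameter fit.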

bromodomain = experiment: Bromodomain cell assays of Example 40 (at least one of them); type: cell-based; conditions: in at least one of the bromodomain cell assays described in Example 40
Outline: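 Growth inhibition: 3000 MV-4-11, MOLM-13, MM.1S or neuroblastoma cells/well got an 8-point 1:3 series from 10 μM top (0.2% DMSO) for 72 h, then CellTiter-Glo luminescence. Myc reporter: MV-4-11 with E-box firefly luciferase, 24 h exposure, One-Glo luminescence plus CellTiter-Fluo cell count. pIC50 from four-parameter fit.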

## COC(c1ccc(C(F)(F)F)nc1)c1c[nH]c2ncc(-c3c(C)noc3C)cc12 (stereo not drawn) [P-0013, 4-[3-[methoxy-[6-(trifluoromethyl)-3-pyridyl]methyl]-1H-pyrrolo[2,3-b]pyridin-5-yl]-3,5-dimethyl-isoxazole]
MV-4-11
  IC50: ≤ 1 µM
bromodomain
  IC50: < 10 µM

## Cc1noc(C)c1-c1cnc2c(-c3cnn(CC(F)(F)F)c3)cn(S(=O)(=O)C3CCCC3)c2c1 [P-0149, 4-[1-cyclopentylsulfonyl-3-[1-(2,2,2-trifluoroethyl)pyrazol-4-yl]pyrrolo[3,2-b]pyridin-6-yl]-3,5-dimethyl-isoxazole]
MV-4-11
  IC50: ≤ 1 µM
bromodomain
  IC50: < 10 µM

## Cc1ccc(S(=O)(=O)n2ccc3ncc(-c4c(C)noc4C)cc32)s1 [P-0062, 3,5-dimethyl-4-[1-[(5-methyl-2-thienyl)sulfonyl]pyrrolo[3,2-b]pyridin-6-yl]isoxazole]
MV-4-11
  IC50: 1 to 10 µM
bromodomain
  IC50: < 10 µM

## CCCS(=O)(=O)n1cc(-c2cnn(C)c2)c2ncc(-c3c(C)noc3C)cc21 [P-0111, 3,5-dimethyl-4-[3-(1-methylpyrazol-4-yl)-1-propylsulfonyl-pyrrolo [3,2-b]pyridin-6-yl] isoxazole]
MV-4-11
  IC50: ≤ 1 µM
bromodomain
  IC50: < 10 µM

## Cc1noc(C)c1-c1cnc2c(-c3cn[nH]c3)cn(C(C)c3ccccc3)c2c1 (stereo not drawn) [P-0199, 3,5-dimethyl-4-[1-(1-phenylethyl)-3-(1H-pyrazol-4-yl)pyrrolo[3,2-b]pyridin-6-yl]isoxazole]
MV-4-11
  IC50: ≤ 1 µM
bromodomain
  IC50: < 10 µM

## CC(=O)N1CCC(Cc2cn(C)c3ncc(-c4c(C)noc4C)cc23)CC1 [P-0120, 1-[4-[[5-(3,5-dimethylisoxazol-4-yl)-1-methyl-pyrrolo[2,3-b]pyridin-3-yl]methyl]-1-piperidyl]ethanone]
MV-4-11
  IC50: 1 to 10 µM
bromodomain
  IC50: < 10 µM

## Cc1noc(C)c1-c1cnc2c(-c3cc(C(F)(F)F)n[nH]3)cn(C(C)c3ccccc3)c2c1 (stereo not drawn) [P-0215, 3,5-dimethyl-4-[1-(1-phenylethyl)-3-[3-(trifluoromethyl)-1H-pyrazol-5-yl]pyrrolo[3,2-b]pyridin-6-yl]isoxazole]
MV-4-11
  IC50: ≤ 1 µM
bromodomain
  IC50: < 10 µM

## Cc1noc(C)c1-c1cnc2c(-c3cnn(C)c3)cn(C(C)c3ccccc3)c2c1 (stereo not drawn) [P-0161, 3,5-dimethyl-4-[3-(1-methylpyrazol-4-yl)-1-(1-phenylethyl)pyrrolo[3,2-b]pyridin-6-yl]isoxazole]
MV-4-11
  IC50: ≤ 1 µM
bromodomain
  IC50: < 10 µM

## Cc1noc(C)c1-c1cnc2c(-c3cnn(C(F)F)c3)cn(S(=O)(=O)c3ccccc3)c2c1 [P-0131, 4-[1-(benzenesulfonyl)-3-[1-(difluoromethyl)pyrazol-4-yl]pyrrolo[3,2-b]pyridin-6-yl]-3,5-dimethyl-isoxazole]
MV-4-11
  IC50: ≤ 1 µM
bromodomain
  IC50: < 10 µM

## Cc1noc(C)c1-c1cnc2c(-c3cnn(C)c3)cn(C(CF)c3ccccc3)c2c1 (stereo not drawn) [P-0187, 4-[1-(2-fluoro-1-phenyl-ethyl)-3-(1-methylpyrazol-4-yl)pyrrolo[3,2-b]pyridin-6-yl]-3,5-dimethyl-isoxazole]
MV-4-11
  IC50: ≤ 1 µM
bromodomain
  IC50: < 10 µM

## COC(c1c[nH]c2ncc(-c3c(C)noc3C)cc12)C1CCC(F)(F)CC1 (stereo not drawn) [P-0073, 4-[3-[(4,4-difluorocyclohexyl)-methoxy-methyl]-1H-pyrrolo[2,3-b]pyridin-5-yl]-3,5-dimethyl-isoxazole]
MV-4-11
  IC50: ≤ 1 µM
bromodomain
  IC50: < 10 µM

## Cc1noc(C)c1-c1cnc2c(-c3cnn(C4CCOC4)c3)cn(C(C)c3ccccc3)c2c1 (stereo not drawn) [P-0204, 3,5-dimethyl-4-[1-(1-phenylethyl)-3-(1-tetrahydrofuran-3-ylpyrazol-4-yl)pyrrolo[3,2-b]pyridin-6-yl]isoxazole]
MV-4-11
  IC50: ≤ 1 µM
bromodomain
  IC50: < 10 µM

## Cc1noc(C)c1-c1cnc2[nH]cc(C(O)c3cccc(OC(F)(F)F)c3)c2c1 (stereo not drawn) [P-0039, [5-(3,5-dimethylisoxazol-4-yl)-1H-pyrrolo[2,3-b]pyridin-3-yl]-[3-(trifluoromethoxy)phenyl] methanol]
MV-4-11
  IC50: 1 to 10 µM
bromodomain
  IC50: < 10 µM

## Cc1noc(C)c1-c1cnc2c(-c3cnn(C)c3)cn(Cc3ccccc3OC(F)(F)F)c2c1 [P-0194, 3,5-dimethyl-4-[3-(1-methylpyrazol-4-yl)-1-[[2-(trifluoromethoxy)phenyl]methyl]pyrrolo[3,2-b]pyridin-6-yl]isoxazole]
MV-4-11
  IC50: ≤ 1 µM
bromodomain
  IC50: < 10 µM

## Cc1noc(C)c1-c1cnc2ccn(S(=O)(=O)c3ccccc3)c2c1 [P-0038, 4-[1-(benzenesulfonyl)pyrrolo [3,2-b]pyridin-6-yl]-3,5-dimethyl-isoxazole]
MV-4-11
  IC50: ≤ 1 µM
bromodomain
  IC50: < 10 µM

## [2H]C([2H])(C1CC(F)(F)C1)n1cc(-c2cnn(C)c2)c2ncc(-c3c(C)noc3C)cc21 [P-0214, 4-[1-[dideuterio-(3,3-difluorocyclobutyl)methyl]-3-(1-methylpyrazol-4-yl)pyrrolo[3,2-b]pyridin-6-yl]-3,5-dimethyl-isoxazole]
MV-4-11
  IC50: ≤ 1 µM
bromodomain
  IC50: < 10 µM

## COc1ncc(-c2cn(S(=O)(=O)c3ccccc3)c3cc(-c4c(C)noc4C)cnc23)cn1 [P-0104, 4-[1-(benzenesulfonyl)-3-(2-methoxypyrimidin-5-yl)pyrrolo[3,2-b]pyridin-6-yl]-3,5-dimethyl-isoxazole]
MV-4-11
  IC50: 1 to 10 µM
bromodomain
  IC50: < 10 µM

## C=CCn1cc(-c2cn(Cc3ccccc3)c3cc(-c4c(C)noc4C)cnc23)cn1 [P-0160, 4-[3-(1-allylpyrazol-4-yl)-1-benzyl-pyrrolo[3,2-b]pyridin-6-yl]-3,5-dimethyl-isoxazole]
MV-4-11
  IC50: ≤ 1 µM
bromodomain
  IC50: < 10 µM

## Cc1noc(C)c1-c1cnc2c(-c3cnn(C)c3)cn(Cc3cccnc3)c2c1 [P-0195, 3,5-dimethyl-4-[3-(1-methylpyrazol-4-yl)-1-(3-pyridylmethyl)pyrrolo[3,2-b]pyridin-6-yl]isoxazole]
MV-4-11
  IC50: ≤ 1 µM
bromodomain
  IC50: < 10 µM

## Cc1nc(Cn2cc(-c3cnn(C)c3)c3ncc(-c4c(C)noc4C)cc32)cs1 [P-0170, 3,5-dimethyl-4-[3-(1-methylpyrazol-4-yl)-1-[(2-methylthiazol-4-yl)methyl]pyrrolo[3,2-b]pyridin-6-yl]isoxazole]
MV-4-11
  IC50: ≤ 1 µM
bromodomain
  IC50: < 10 µM

## Cc1noc(C)c1-c1cnc2[nH]cc(Cc3ccccc3Cl)c2c1 [P-0026, 4-[3-[(2-chlorophenyl)methyl]-1H-pyrrolo[2,3-b]pyridin-5-yl]-3,5-dimethyl-isoxazole]
MV-4-11
  IC50: 1 to 10 µM
bromodomain
  IC50: < 10 µM

## Cc1noc(C)c1-c1cnc2[nH]cc(Sc3ccccc3)c2c1 [P-0144, 3,5-dimethyl-4-(3-phenylsulfanyl-1H-pyrrolo[2,3-b]pyridin-5-yl)isoxazole]
MV-4-11
  IC50: 1 to 10 µM
bromodomain
  IC50: < 10 µM

## Cc1noc(C)c1-c1cnc2ccn(C(C)c3ccccc3)c2c1 (stereo not drawn) [P-0159, 3,5-dimethyl-4-[1-(1-phenylethyl)pyrrolo[3,2-b]pyridin-6-yl]isoxazole]
MV-4-11
  IC50: ≤ 1 µM
bromodomain
  IC50: < 10 µM

## Cc1noc(C)c1-c1cnc2c(-c3ccccc3)cn(S(=O)(=O)c3ccccc3)c2c1 [P-0077, 4-[1-(benzenesulfonyl)-3-phenyl-pyrrolo[3,2-b]pyridin-6-yl]-3,5-dimethyl-isoxazole]
MV-4-11
  IC50: 1 to 10 µM
bromodomain
  IC50: < 10 µM

## CCCCS(=O)(=O)n1ccc2ncc(-c3c(C)noc3C)cc21 [P-0036, 4-(1-butylsulfonylpyrrolo [3,2-b]pyridin-6-yl)-3,5-dimethyl-isoxazole]
MV-4-11
  IC50: 1 to 10 µM
bromodomain
  IC50: < 10 µM

## COc1ncc(C(O)c2c[nH]c3ncc(-c4c(C)noc4C)cc23)cc1F (stereo not drawn) [P-0025, [5-(3,5-dimethylisoxazol-4-yl)-1H-pyrrolo[2,3-b]pyridin-3-yl]-(5-fluoro-6-methoxy-3-pyridyl)methanol]
MV-4-11
  IC50: 1 to 10 µM
bromodomain
  IC50: < 10 µM

## COC(c1ccccc1Cl)c1c[nH]c2ncc(-c3c(C)noc3C)cc12 (stereo not drawn) [P-0020, 4-[3-[(2-chlorophenyl)-methoxy-methyl]-1H-pyrrolo[2,3-b]pyridin-5-yl]-3,5-dimethyl-isoxazole]
MV-4-11
  IC50: ≤ 1 µM
bromodomain
  IC50: < 10 µM

## Cc1noc(C)c1-c1cnc2c(-c3cnn(C)c3)cn(S(=O)(=O)c3ccccc3)c2c1 [P-0110, 4-[1-(benzenesulfonyl)-3-(1-methylpyrazol-4-yl)pyrrolo[3,2-b]pyridin-6-yl]-3,5-dimethyl-isoxazole]
MV-4-11
  IC50: ≤ 1 µM
bromodomain
  IC50: < 10 µM

## Cc1noc(C)c1-c1cnc2[nH]cc(C(O)c3cccc4c3OC(F)(F)O4)c2c1 (stereo not drawn) [P-0041, (2,2-difluoro-1,3-benzodioxol-4-yl)-[5-(3,5-dimethylisoxazol-4-yl)-1H-pyrrolo[2,3-b]pyridin-3-yl] methanol]
MV-4-11
  IC50: 1 to 10 µM
bromodomain
  IC50: < 10 µM

## Cc1noc(C)c1-c1cnc2ccn(S(=O)(=O)c3ccccc3F)c2c1 [P-0060, 4-[1-(2-fluorophenyl)sulfonylpyrrolo[3,2-b]pyridin-6-yl]-3,5-dimethyl-isoxazole]
MV-4-11
  IC50: 1 to 10 µM
bromodomain
  IC50: < 10 µM

## Cc1noc(C)c1-c1cnc2c(-c3cnn(C(F)F)c3)cn(S(=O)(=O)CCC(F)(F)F)c2c1 [P-0136, 4-[3-[1-(difluoromethyl)pyrazol-4-yl]-1-(3,3,3-trifluoropropylsulfonyl)pyrrolo[3,2-b]pyridin-6-yl]-3,5-dimethyl-isoxazole]
MV-4-11
  IC50: 1 to 10 µM
bromodomain
  IC50: < 10 µM

## Cc1noc(C)c1-c1cnc2[nH]cc(C(c3ccc(F)cc3)C3CC3)c2c1 (stereo not drawn) [P-0064, 4-[3-[cyclopropyl-(4-fluorophenyl)methyl]-1H-pyrrolo[2,3-b]pyridin-5-yl]-3,5-dimethyl-isoxazole]
MV-4-11
  IC50: ≤ 1 µM
bromodomain
  IC50: < 10 µM

## Cc1noc(C)c1-c1cnc2c(-c3cnn(C(F)F)c3)cn(Cc3ccccc3F)c2c1 [P-0176, 4-[3-[1-(difluoromethyl)pyrazol-4-yl]-1-[(2-fluorophenyl)methyl]pyrrolo[3,2-b]pyridin-6-yl]-3,5-dimethyl-isoxazole]
MV-4-11
  IC50: ≤ 1 µM
bromodomain
  IC50: < 10 µM
